# Where two headings read alike, the source gives them in different places.
# System: iCell cardiomyocytes (human iPSC-derived cardiomyocytes)
# Experiment: Intracellular Ca2+ flux / beating parameters in iCell cardiomyocytes (FLIPR tetra), 90 min or 24 h
# Assay type: cell-based
# Conditions: Homo sapiens, Cardiomyocyte, 0.00 µM = 100.00; for activity at 0.1 µM: 0.10 µM
# Protocol: Details on cardiomyocyte cell culture are described in detail elsewhere ([Grimm et al. 2015b]; [Sirenko et al. 2013a]). Briefly, tissue-culture treated 384 well plates were gelatinized with 25μL per well of 0.1% (w/v) gelatin in water for 2 h at 37°C and 5% CO2 . Individual vials of cells were thawed for 4 min in a water bath maintained at 37°C. Thawed cells were resuspended in 10ml plating medium containing 1:500 (vol/vol) penicillin/streptomycin solution at room temperature (RT). Live cell counts for each cell suspension were determined by trypan blue staining and cells were further diluted to provide final cell densities of 2×10^5 viable cells/ml. Thus, 5,000 cells suspended in 25μL media were transferred per well after the gelatin solution had been discarded. Cell culture plates were rested for 30 min at RT before they were incubated for 48 h at 37°C and 5% CO2 . Then, a media exchange with 30μL of fresh maintenance medium containing 1:500 (vol/vol) penicillin/streptomycin solution was performed, and cell media were subsequently changed every 48 h for 12 d. On the experiment day, the medium was completely exchanged with either 25μL (for Ca^2+ flux assay) or 40μL (for imaging) of fresh medium.
# Responses of iCell®-cardiomyocytes to drugs and chemicals were evaluated using intracellular Ca^2+ flux measurements ([Grimm et al. 2015b]; [Sirenko et al. 2013b]). For experiments, 20 mM stock solutions of PCBs and PCB metabolites were prepared in DMSO ( 200× ). Chemical working solutions ( 5× ) were prepared using cardiomyocyte maintenance medium and contained 2.5% (vol/vol) DMSO. These chemical master plates were prepared to include all chemicals in concentration–response (0.05, 0.5, 5, 50, and 500μM ). Negative controls included media-only and vehicle control (i.e., 0.5% vol/vol DMSO in cell culture media) wells. Positive assay controls were consistent with previously published reports ([Grimm et al. 2018]) and included TAB ( 50μM ) as a cytotoxic control, and isoproterenol ( 0.1–10μM ), propranolol ( 0.1–5 μM ), cisapride ( 0.01–1μM ), and doxorubicin ( 0.1–5μM ) as chemicals associated with specific effects on beating and ion flux. Each test chemical was screened in triplicate for each concentration.
# Experiments started with the addition of 25μL of prewarmed 2× concentrated calcium dye reagent to sample wells containing 25μL maintenance media. Microplates were then acclimated for 2 h at 37°C. Following equilibration, cardiomyocyte sample wells were treated simultaneously by the addition of 12.5μL of prewarmed 5× chemical solution to iCell®-cardiomyocytes using the automated liquid handler in the FLIPR tetra (Molecular Devices). Treated cell cultures were incubated for either 90 min or 24 h. After the conclusion of the treatment period, the Ca^2+ flux was measured for 100 s at a frequency of 8 Hz using the integrated fluorescence plate reader in the FLIPR tetra (Molecular Devices) using an emission wavelength range of λemission=515–575 nm ( λexcitation=470–495 nm ). Additional instrument settings included exposure time per read of 0.05s, a gain of 2000, an excitation intensity of 30%, and an internal temperature of 37°C.
# Ca^2+ flux data were processed in R studio (version 1.0.136, with R version 3.3.2; R Development Core Team) as described elsewhere ([Blanchette et al. 2019]; [Burnett et al. 2019]). Calculated quantitative metrics included the means and coefficients of variation (CV) of the peak height, which can be indicative of cytotoxicity, inhibition, or stimulation of beating. Means of peak frequency, an indicator of positive or negative […], and CV of peak spacing, an indicator of irregular beating, were also derived from Ca^2+ flux traces. Finally, the mean ratio of the decay over rise time was calculated. Increases in the decay/rise time ratio are reflective of delayed repolarization and are a measure for QT prolongation. […]
# [1] = 1.5 h, read-out: cm.amp.avg.90min
# [2] = 1.5 h, read-out: cm.amp.cv.90min
# [3] = 1.5 h, read-out: cm.decay.rise.90min
# [4] = 1.5 h, read-out: cm.spacing.cv.90min
# [5] = 24 h, read-out: cm.amp.avg.24hrs
# [6] = 24 h, read-out: cm.amp.cv.24hrs
# [7] = 24 h, read-out: cm.decay.rise.24hrs
# [8] = 24 h, read-out: cm.spacing.cv.24hrs
smiles,measurement,setting,value
Oc1ccccc1-c1ccc(Cl)cc1 [2'-OH PCB3],activity at 0.01 µM,[1],95.7%
same,activity at 0.01 µM,[2],112%
same,activity at 0.01 µM,"1.5 h, read-out: cm.bpm.90min",102%
same,activity at 0.01 µM,[3],98.2%
same,activity at 0.01 µM,[4],143%
same,activity at 0.1 µM,[1],105%
same,activity at 0.1 µM,[2],96.5%
same,activity at 0.1 µM,"1.5 h, read-out: cm.bpm.90min",102%
same,activity at 0.1 µM,[3],98.7%
same,activity at 0.1 µM,[4],110%
same,activity at 1 µM,[1],102%
same,activity at 1 µM,[2],116%
same,activity at 1 µM,"1.5 h, read-out: cm.bpm.90min",104%
same,activity at 1 µM,[3],97.6%
same,activity at 1 µM,[4],106%
same,activity at 10 µM,[1],0%
same,activity at 10 µM,[2],0%
same,activity at 10 µM,"1.5 h, read-out: cm.bpm.90min",0%
same,activity at 10 µM,[3],0%
same,activity at 10 µM,[4],0%
same,activity at 100 µM,[1],0%
same,activity at 100 µM,[2],0%
same,activity at 100 µM,"1.5 h, read-out: cm.bpm.90min",0%
same,activity at 100 µM,[3],0%
same,activity at 100 µM,[4],0%
same,activity at 0.01 µM,[5],112%
same,activity at 0.01 µM,[6],138%
same,activity at 0.01 µM,"24 h, read-out: cm.bpm.24hrs",118%
same,activity at 0.01 µM,[7],82.1%
same,activity at 0.01 µM,[8],120%
same,activity at 0.1 µM,[5],115%
same,activity at 0.1 µM,[6],126%
same,activity at 0.1 µM,"24 h, read-out: cm.bpm.24hrs",116%
same,activity at 0.1 µM,[7],92.5%
same,activity at 0.1 µM,[8],111%
same,activity at 1 µM,[5],124%
same,activity at 1 µM,[6],94.2%
same,activity at 1 µM,"24 h, read-out: cm.bpm.24hrs",95.5%
same,activity at 1 µM,[7],112%
same,activity at 1 µM,[8],106%
same,activity at 10 µM,[5],104%
same,activity at 10 µM,[6],140%
same,activity at 10 µM,"24 h, read-out: cm.bpm.24hrs",121%
same,activity at 10 µM,[7],82.7%
same,activity at 10 µM,[8],111%
same,activity at 100 µM,[5],0%
same,activity at 100 µM,[6],0%
same,activity at 100 µM,"24 h, read-out: cm.bpm.24hrs",0%
same,activity at 100 µM,[7],0%
same,activity at 100 µM,[8],0%
